Data as given in article PMC9099121, “Population pharmacokinetic and exposure‐response analyses from ALTA‐1L: Model‐based analyses supporting the brigatinib dose in ALK‐positive NSCLC” (Clinical and Translational Science, 2022).

Columns and labels:
[1] = Population PK model (Bayesian re-estimation), brigatinib arm of ALTA-1L (first-line); assay type: in vivo, human; settings: geometric mean (5th and 95th percentiles)
Method: The population PK and exposure‐response analyses evaluated data from the brigatinib arm (180 mg q.d. with a 7‐day lead‐in at 90 mg q.d.) of the ALTA‐1L trial (second interim analysis, data cutoff date: June 28, 2019).[8] […] Blood samples for measurement of brigatinib plasma concentrations were obtained predose on day 1 of cycle one (28 day/cycle); predose and 1, 4, and 6 to 8 h postdose on day 1 of cycle two; and predose and any time between 1 and 8 h postdose on day 1 of cycles three, four, and five. Plasma samples were analyzed for brigatinib concentrations using a validated liquid chromatography/tandem mass spectrometry assay with a lower limit of quantification of 5 ng/mL. Efficacy assessments were based on computed tomography or magnetic resonance imaging performed at screening, every 8 weeks through cycle 14, and then every 12 weeks through treatment discontinuation.[8] Safety data were collected as they were reported.
(§1) The previously developed population PK model[11] was used for population PK analyses of ALTA‐1L data. The previous analysis provided a robust and comprehensive characterization of brigatinib PK and sources of variability. Importantly, the previous analysis included 202 patients with ALK+ NSCLC that progressed on other ALK TKIs, representing a similar patient population to patients receiving first‐line brigatinib in ALTA‐1L. These considerations supported a Bayesian re‐estimation approach for deriving individual brigatinib PK parameters in ALTA‐1L using the previously reported model, and the model was applied without modification. In brief, the population PK model described brigatinib PK using a three‐compartment model with linear distribution and elimination kinetics and first‐order absorption preceded by a set of transit compartments.[11] The model included albumin concentration as a covariate on apparent oral clearance (CL/F). Bayesian re‐estimation was performed by setting initial model conditions to values of fixed effects and random effect variances previously estimated,[11] allowing for estimation of individual PK parameters based on the PK observations in the ALTA‐1L dataset.
(§2) Diagnostic plots were created to compare brigatinib PK in patients in ALTA‐1L (first‐line setting) and ALTA (second‐line setting). […] In exploratory analyses, relationships between covariates of interest and model‐based exposure estimates were evaluated using linear regression models with each covariate as a predictor.

[2] = Population PK model post hoc estimates, ALTA (second-line); assay type: in vivo, human; settings: geometric mean (5th and 95th percentiles); ALTA n = 201
Excerpt: as §1, §2

[3] = Linear regression of covariates versus post hoc steady-state AUC, ALTA-1L; assay type: in vivo, human; settings: for Percentage change in steady-state AUC relative to value at median covariate [95% CI] / Percentage change in median AUC (with 95% CI) relative to the most common reference category: 180 mg once daily
Method: as §2

ALK+ NSCLC = assay: Exposure-ORR/iORR logistic regression, ALTA-1L; assay type: in vivo, human
Excerpt: The exposure‐efficacy analyses related reported efficacy outcomes (blinded IRC [BIRC]‐assessed PFS, ORR, and iORR) to individual brigatinib exposures predicted using individual estimated PK parameters from the population PK model. Model‐based estimates of CL/F and actual dosing history were used to derive exposure metrics of interest. Several exposure metrics were considered, including both static and dynamic area under the concentration‐time curve (AUC) estimates (Methods S1).
For ORR and iORR, each patient was classified as a responder (i.e., achieving confirmed complete or partial systemic ORR or iORR response) or a nonresponder. Relationships between ORR and iORR and brigatinib exposure were analyzed using two static exposure metrics: time‐averaged AUC between the last two disease assessment scans preceding best confirmed response and time‐averaged AUC until best confirmed response (ORR or iORR). Exposure–clinical response relationships were characterized by logistic regression models. Predicted logistic regression curve and observed response rate in each brigatinib exposure quartile or tertile (along with associated 95% CIs) were plotted.
Time averaged AUC until best confirmed response (ORR or iORR)= Cumulative dose to best confirmed systemic ORR or intracranial iORR responseOral brigatinib clearance/ (days to best confirmed systemic or intracranial response)
Static metrics of time-averaged exposure between the last two disease assessment scans preceding PFS, ORR, or iORR, or censoring (refer to 2)

[4] = system: advanced ALK inhibitor-naive ALK+ NSCLC; settings: cited from earlier work
[5] = design: method as in earlier work; settings: after administration of 180 mg q.d.; cited from earlier work

COc1cc(N2CCC(N3CCN(C)CC3)CC2)ccc1Nc1ncc(Cl)c(Nc2ccccc2P(C)(C)=O)n1 [brigatinib]
Albumin covariate effect on CL/F ([1]; ALTA-1L n = 123): 1.03 (0.874, 1.13)
CL/F ([1]; ALTA-1L n = 123): 8.45 (4.04, 17.8) L/h
Mean transit time ([1]; ALTA-1L n = 123): 1.01 (0.538, 2.36) h
Q2/F ([1]; ALTA-1L n = 123): 12.6 (12.6, 12.6) L/h
Q3/F ([1]; ALTA-1L n = 123): 2.67 (2.67, 2.67) L/h
V1/F ([1]; ALTA-1L n = 123): 160 (69.0, 302) L
V2/F ([1]; ALTA-1L n = 123): 118 (46.5, 283) L
V3/F ([1]; ALTA-1L n = 123): 78.5 (78.5, 78.5) L
AUC ([1]; human, plasma, oral, maintenance dose 180 mg q.d., ALTA-1L, read-out: Daily steady-state post hoc AUC): 21300 ng·h/mL
Albumin covariate effect on CL/F [2]: 0.939 (0.758, 1.09)
CL/F [2]: 9.90 (4.06, 23.0) L/h
Mean transit time [2]: 0.998 (0.584, 1.92) h
Q2/F [2]: 12.6 (12.6, 12.6) L/h
Q3/F [2]: 2.67 (2.67, 2.67) L/h
V1/F [2]: 199 (86.0, 468) L
V2/F [2]: 124 (78.3, 259) L
V3/F [2]: 78.5 (78.5, 78.5) L
Percentage change in steady-state AUC relative to value at median covariate [95% CI] ([3]; ALT, 5th percentile): 0 [-6; 4] %
Percentage change in steady-state AUC relative to value at median covariate [95% CI] ([3]; ALT, 95th percentile): 2 [-21; 28] %
Percentage change in steady-state AUC relative to value at median covariate [95% CI] ([3]; AST, 5th percentile): -4 [-9; 4] %
Percentage change in steady-state AUC relative to value at median covariate [95% CI] ([3]; AST, 95th percentile): 11 [-11; 38] %
Percentage change in steady-state AUC relative to value at median covariate [95% CI] ([3]; age, 5th percentile): -26 [-39; -15] %
Percentage change in steady-state AUC relative to value at median covariate [95% CI] ([3]; age, 95th percentile): 27 [15; 43] %
Percentage change in steady-state AUC relative to value at median covariate [95% CI] ([3]; albumin at baseline, 5th percentile): 3 [1; 14] %
Percentage change in steady-state AUC relative to value at median covariate [95% CI] ([3]; albumin at baseline, 95th percentile): -2 [-5; 0] %
Percentage change in steady-state AUC relative to value at median covariate [95% CI] ([3]; body weight, 5th percentile): 12 [3; 21] %
Percentage change in steady-state AUC relative to value at median covariate [95% CI] ([3]; body weight, 95th percentile): -18 [-31; -5] %
Percentage change in steady-state AUC relative to value at median covariate [95% CI] ([3]; eGFR, 5th percentile): 2 [-9; 14] %
Percentage change in steady-state AUC relative to value at median covariate [95% CI] ([3]; eGFR, 95th percentile): -3 [-22; 15] %
Percentage change in median AUC (with 95% CI) relative to the most common reference category ([3]; race: Asian (n = 53) vs White (n = 68)): -6 [-21; 12] %
Percentage change in median AUC (with 95% CI) relative to the most common reference category ([3]; sex: Female (n = 60) vs Male (n = 63)): 15 [-3; 37] %
Percentage change in steady-state AUC relative to value at median covariate [95% CI] ([3]; total bilirubin, 5th percentile): -11 [-24; 8] %
Percentage change in steady-state AUC relative to value at median covariate [95% CI] ([3]; total bilirubin, 95th percentile): 17 [-12; 41] %
Magnitude of relative difference in predicted AUC for each stratum compared with the most common stratum ([3]; categorical covariates (sex and race), ALTA-1L): less than 20%
Magnitude of relative difference in predicted AUC at 5th and 95th percentiles relative to median of covariate ([3]; continuous covariates (age, eGFR, body weight, total bilirubin, AST, ALT), ALTA-1L): below 30%
Variability in post hoc AUC, 5th and 95th percentiles relative to predicted AUC for a typical patient ([3]; overall ALTA-1L population, typical patient with albumin 41 g/L): −60% to +263
Estimated probability of iORR (ALK+ NSCLC; 5th exposure percentile following 180 mg dosing): 0.58
Estimated probability of iORR (ALK+ NSCLC; 50th (median) exposure percentile following 180 mg dosing): 0.83
Estimated probability of iORR (ALK+ NSCLC; 50th (median) exposure percentile following 180 mg dosing, listed as Brigatinib): 0.83 (0.58–0.99)
Estimated probability of iORR (ALK+ NSCLC; 95th exposure percentile following 180 mg dosing): 0.99
Odds ratio for probability of achieving iORR versus exposure (ALK+ NSCLC; time-averaged AUC between the last two disease assessments preceding best confirmed intracranial response, 95% CI: 1.01–1.28, p = 0.049, n = 42): 1.13
Odds ratio for probability of achieving ORR versus exposure (ALK+ NSCLC; time-averaged AUC between the last two disease assessments preceding best confirmed objective response, 95% CI: 0.93–1.01, p = 0.108): 0.97
Odds ratio for probability of achieving ORR versus exposure (ALK+ NSCLC; time-averaged AUC until the first best confirmed response, p = 0.13): 0.97 [0.94–1.01]
Odds ratio for probability of iORR versus exposure (ALK+ NSCLC; time-averaged AUC until the first best confirmed response, p = 0.15): 1.09 [0.98–1.23]
Hazard ratio versus crizotinib (superiority, PFS) ([4]; ALTA-1L first interim analysis, 95% CI: 0.33–0.74, p < 0.001): 0.49
Early onset pulmonary events, patients ([4]; ALTA-1L): 3%
Median PFS ([4]; ALTA-1L): ≥ 2 years
Median time to first brigatinib dose reduction ([4]; ALTA-1L): ~ 2 years
2-year intracranial PFS rate ([4]; ALTA-1L, patients with any baseline brain metastases): 48%
iORR ([4]; second ALTA-1L interim analysis, patients with measurable baseline brain metastases): 78%
Mean plasma elimination half-life [5]: 25 h
